The conditions of this data set: Liquid.
Where [1] appears, read: 312.59 K, Closed cell (Static) method.

± gives the expanded uncertainty stated by the source.

The vapor or sublimation pressure is the equilibrium pressure above the liquid or solid. `C=CCC` [1-butene]: the “vapor or sublimation pressure” value under setting [1] was determined as 448.3 ± 3.2 kPa.
In the case of `CCOC(C)(C)C` [2-ethoxy-2-methylpropane], the “vapor or sublimation pressure” value by setting is: (312.83 K, Ebulliometric method (Recirculating still)) 30.95 ± 0.33 kPa; (312.84 K, Closed cell (Static) method) 31.9 ± 2.8 kPa; (330.44 K, Ebulliometric method (Recirculating still)) 60.25 ± 0.34 kPa; (338.77 K, Ebulliometric method (Recirculating still)) 80.14 ± 0.38 kPa; (343.01 K, Ebulliometric method (Recirculating still)) 92 ± 0.42 kPa; (346.26 K, Ebulliometric method (Recirculating still)) 102.08 ± 0.43 kPa. Under “358.31 K, Closed cell (Static) method”, the “vapor or sublimation pressure” value turned out to be 147.9 ± 2.8 kPa.
For `CC(C)C` [2-methylpropane], the “vapor or sublimation pressure” value (307.79 K, Closed cell (Static) method) is 460.8 ± 3.2 kPa.
For the molecule `C=C(C)C` [2-methylpropene], the “vapor or sublimation pressure” value under setting [1] amounted to 467.1 ± 3.2 kPa.
Take `CCCC` [butane]: the “vapor or sublimation pressure” value (322.01 K, Closed cell (Static) method) was 479.5 ± 3.2 kPa.
As for `CCC#N` [propanenitrile], the “vapor or sublimation pressure” value reads like this: (307.78 K, Closed cell (Static) method) 9.47 ± 2.8 kPa; (312.5 K, Closed cell (Static) method) 11.9 ± 2.8 kPa; (312.58 K, Closed cell (Static) method) 11.9 ± 2.8 kPa; (313.15 K, Closed cell (Static) method) 12.5 ± 2.8 kPa; (313.15 K, Ebulliometric method (Recirculating still)) 12.72 ± 0.29 kPa; (322 K, Closed cell (Static) method) 17.4 ± 2.8 kPa. In addition, the “vapor or sublimation pressure” value (339.57 K, Ebulliometric method (Recirculating still)) is recorded as 36.51 ± 0.3 kPa; the “vapor or sublimation pressure” value (353.83 K, Ebulliometric method (Recirculating still)) came to 60.04 ± 0.33 kPa; the “vapor or sublimation pressure” value (358.33 K, Closed cell (Static) method) was found to be 69.6 ± 2.8 kPa; the “vapor or sublimation pressure” value (358.37 K, Ebulliometric method (Recirculating still)) is recorded as 69.81 ± 0.36 kPa; the “vapor or sublimation pressure” value (364.8 K, Ebulliometric method (Recirculating still)) came out at 85.5 ± 0.39 kPa; the “vapor or sublimation pressure” value (370.9 K, Ebulliometric method (Recirculating still)) turned out to be 103.12 ± 0.4 kPa.
